Assay [1] relates to HCT-116. The experiment in a line: Inhibition of human HCT116 clonogenicity after 7 days by crystal violet staining by densitometric analysis. It counts as functional.
For assay [2], the system named is HCT-116. The experiment in a line: Cell cycle arrest in human HCT116 cells assessed as accumulation at G1 phase at 20 uM after 48 hrs by flow cytometry (Rvb =45.27 %). It counts as functional.
For assay [3], the system named is HCT-116. The experiment in a line: Cell cycle arrest in human HCT116 cells assessed as accumulation at sub-G1 phase at 20 uM after 48 hrs by flow cytometry (Rvb =7.90 %). It counts as functional.
The test system of assay [4] is HCT-116. The experiment in a line: Cell cycle arrest in human HCT116 cells assessed as accumulation at G2/M phase at 20 uM after 48 hrs by flow cytometry (Rvb =23.23 %). It is filed as functional.
In assay [5] the test system is HCT-116. The experiment in a line: Antiproliferative activity against human HCT116 assessed as growth inhibition after 24 to 48 hrs by WST-8 assay. It counts as functional, cell-based.
Assay [6] has as its system HCT-116. The experiment in a line: Antiproliferative activity against human HCT116 assessed as growth inhibition at 5 to 40 uM hrs by WST-8 assay. To be noted: TDE = time-dependent effect. It counts as functional, cell-based.
Assay [7] concerns HCT-116. The experiment in a line: Cell cycle arrest in human HCT116 cells assessed as accumulation at S phase at 20 uM after 48 hrs by flow cytometry (Rvb =21.16 %). It counts as functional.

Here are results for 23 compounds from ChEMBL document CHEMBL2021909, “Isoflavones inhibit the clonogenicity of human colon cancer cells” (2012).

`COc1cc(C)c2c(=O)c(-c3ccccc3)coc2c1`: the “inhibition (INH)” value in the assay with HCT-116 [1] is given as 55.3%.
Still for that read-out and setting: to `COc1cc(OC)c2c(=O)c(-c3ccc(Br)cc3)coc2c1` belongs 13.7%; to `COc1ccc(-c2coc3cc(O)c(OC)cc3c2=O)cc1` [CASTANIN], 4.3%.
Take `Cc1c(O)ccc2c(=O)c(-c3ccccc3)coc12`: in the assay on HCT-116 [1], the “inhibition (INH)” value is 27.7%.
On to `COc1cc2c(=O)c(-c3ccc(OC(C)=O)cc3)coc2cc1O`, for which, in the assay with HCT-116 [1], the “inhibition (INH)” value is listed as 26.7%.
Turning to `COc1ccc2c(=O)c(-c3ccccc3)coc2c1`, the “inhibition (INH)” value in the assay with HCT-116 [1] is listed as 42%.
Same read-out and setting: the result for `COc1cc(OC)c2c(=O)c(-c3ccc(OC)c(OC)c3)coc2c1` reads 22.3%; that for `COc1cc(O)c2c(=O)c(-c3ccc(O)cc3)coc2c1` [PRUNETIN], 74%.
For the compound `COc1ccc(-c2coc3cc(OC)c(OC)cc3c2=O)cc1OC`, in the assay on HCT-116 [1], the “inhibition (INH)” value is reported as 85.3%.
As for `COc1cc2occ(-c3ccccc3Cl)c(=O)c2cc1Cl`, the “inhibition (INH)” value in the assay on HCT-116 [1] is reported as 5.3%.
For `COc1cc(OC)c2c(=O)c(-c3ccc(Cl)cc3)coc2c1`, the “inhibition (INH)” value in the assay on HCT-116 [1] worked out at 71.3%.
Still for that read-out and setting: to `Cc1cc2occ(-c3ccc(Cl)cc3Cl)c(=O)c2cc1Cl` belongs 12.7%; to `COc1ccc2c(=O)c(-c3ccc(OC)c(OC)c3)coc2c1`, 35.7%; to `Cc1c(O)ccc2c(=O)c(-c3ccc(Cl)cc3)coc12`, 46.3%.
The same measure, in the same setting: to `COc1cc2c(=O)c(-c3ccccc3)coc2cc1O` belongs 37.3%; to `O=c1c(-c2ccc(O)cc2)coc2c(O)c(O)ccc12`, 64%; to `COc1ccc2c(=O)c(-c3ccccc3)coc2c1C`, 54%.
On the same count and under the same terms, to `COc1ccc(-c2coc3c(OC)c(OC)ccc3c2=O)cc1` belongs 70%; to `COc1cc(OC)c2c(=O)c(-c3cccc(Cl)c3)coc2c1`, 82.7%.
Turning to `COc1ccc2c(=O)c(-c3ccc(Cl)cc3)coc2c1C`, in the assay on HCT-116 [1], the “inhibition (INH)” value turned out to be 58.3%.
For `COc1cc(OC)c2c(=O)c(-c3ccccc3Cl)coc2c1`, the “inhibition (INH)” value with HCT-116 [1] is 63.3%.
On the same count and under the same terms, to `COc1ccc(-c2coc3c(C)c(OC)ccc3c2=O)cc1` belongs 52.7%.
`COc1cc2occ(-c3ccccc3)c(=O)c2cc1OC`: the Activity worked out at 47.46% in the assay on HCT-116 [2], 21.34% with HCT-116 [3], 14.34% in the assay with HCT-116 [4] and 14.97% in the assay with HCT-116 [7]. Besides, the “inhibition (INH)” value in the assay with HCT-116 [1] turned out to be 91.3%. Also, the figures for the “growth inhibition (GI)” value in the assay with HCT-116 [5] and in the assay on HCT-116 [6] were “Dose-dependent effect” and “tde”, respectively.
